Experimental data published in US8691753B2 (priority 2009, dated 2014).
Like-named read-outs stand apart in the source and are kept apart here.

Columns and labels:
Assay type in all cases: biochemical
MMP-3h = MMP-3h (Homo sapiens (Human), UniProt P08254); assay: Inhibition constant (Ki) on MMP-3h; conditions: human MMP-3
Procedure, shortened: (§1)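 Ki values were determined against the human enzymes using a previously published inhibition protocol.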

MMP-8h = MMP-8h (Homo sapiens (Human), UniProt P22894); assay: Inhibition constant (Ki) on MMP-8h; conditions: human MMP-8
Sequence of MMP-8h (P22894 101-467): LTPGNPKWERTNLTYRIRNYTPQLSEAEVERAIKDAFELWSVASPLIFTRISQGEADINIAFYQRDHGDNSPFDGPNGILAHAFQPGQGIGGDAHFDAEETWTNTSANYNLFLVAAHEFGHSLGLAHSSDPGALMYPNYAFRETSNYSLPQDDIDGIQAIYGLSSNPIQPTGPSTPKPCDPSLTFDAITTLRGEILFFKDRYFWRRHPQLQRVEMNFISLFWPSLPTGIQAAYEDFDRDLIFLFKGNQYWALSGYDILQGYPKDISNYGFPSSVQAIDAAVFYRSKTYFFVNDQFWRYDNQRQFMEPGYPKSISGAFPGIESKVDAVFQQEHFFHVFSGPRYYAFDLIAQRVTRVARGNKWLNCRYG

MMP-10h = MMP-10h (Homo sapiens (Human), UniProt P09238); assay: Inhibition constant (Ki) on MMP-10h; conditions: human MMP-10
Sequence of MMP-10h (P09238 99-476): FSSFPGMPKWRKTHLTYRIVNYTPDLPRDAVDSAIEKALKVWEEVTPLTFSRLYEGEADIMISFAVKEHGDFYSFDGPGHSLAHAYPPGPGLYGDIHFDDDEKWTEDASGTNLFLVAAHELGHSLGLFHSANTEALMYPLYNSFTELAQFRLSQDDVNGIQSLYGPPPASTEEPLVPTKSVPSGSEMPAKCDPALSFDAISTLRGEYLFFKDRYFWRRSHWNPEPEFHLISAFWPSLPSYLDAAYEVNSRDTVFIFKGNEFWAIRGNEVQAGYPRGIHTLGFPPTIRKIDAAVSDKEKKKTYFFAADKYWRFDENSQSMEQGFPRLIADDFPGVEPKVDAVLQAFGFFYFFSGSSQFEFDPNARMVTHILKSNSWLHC

MMP-2h = MMP-2h (Homo sapiens (Human), UniProt P08253); assay: Inhibition constant (Ki) on MMP-2h; conditions: human MMP-2
Sequence of MMP-2h (P08253 110-660): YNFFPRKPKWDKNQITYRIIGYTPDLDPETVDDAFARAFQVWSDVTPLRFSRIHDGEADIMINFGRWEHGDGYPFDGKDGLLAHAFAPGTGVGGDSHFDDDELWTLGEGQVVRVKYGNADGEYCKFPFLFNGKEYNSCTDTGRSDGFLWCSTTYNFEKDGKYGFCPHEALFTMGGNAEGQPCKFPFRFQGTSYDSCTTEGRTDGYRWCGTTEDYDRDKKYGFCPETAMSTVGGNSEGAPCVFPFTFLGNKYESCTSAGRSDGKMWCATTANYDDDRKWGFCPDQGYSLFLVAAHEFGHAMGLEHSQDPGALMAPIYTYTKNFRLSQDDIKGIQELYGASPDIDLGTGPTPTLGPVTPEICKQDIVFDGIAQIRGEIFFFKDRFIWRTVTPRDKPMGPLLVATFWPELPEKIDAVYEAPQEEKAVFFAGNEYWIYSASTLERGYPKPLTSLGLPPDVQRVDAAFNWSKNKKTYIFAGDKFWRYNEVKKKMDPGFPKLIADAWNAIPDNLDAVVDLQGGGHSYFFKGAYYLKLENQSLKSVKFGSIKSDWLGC
Procedure, shortened: as §1

MMP-9h = MMP-9h (Homo sapiens (Human), UniProt P14780); assay: Inhibition constant (Ki) on MMP-9h; conditions: human MMP-9
Sequence of MMP-9h (P14780 94-707): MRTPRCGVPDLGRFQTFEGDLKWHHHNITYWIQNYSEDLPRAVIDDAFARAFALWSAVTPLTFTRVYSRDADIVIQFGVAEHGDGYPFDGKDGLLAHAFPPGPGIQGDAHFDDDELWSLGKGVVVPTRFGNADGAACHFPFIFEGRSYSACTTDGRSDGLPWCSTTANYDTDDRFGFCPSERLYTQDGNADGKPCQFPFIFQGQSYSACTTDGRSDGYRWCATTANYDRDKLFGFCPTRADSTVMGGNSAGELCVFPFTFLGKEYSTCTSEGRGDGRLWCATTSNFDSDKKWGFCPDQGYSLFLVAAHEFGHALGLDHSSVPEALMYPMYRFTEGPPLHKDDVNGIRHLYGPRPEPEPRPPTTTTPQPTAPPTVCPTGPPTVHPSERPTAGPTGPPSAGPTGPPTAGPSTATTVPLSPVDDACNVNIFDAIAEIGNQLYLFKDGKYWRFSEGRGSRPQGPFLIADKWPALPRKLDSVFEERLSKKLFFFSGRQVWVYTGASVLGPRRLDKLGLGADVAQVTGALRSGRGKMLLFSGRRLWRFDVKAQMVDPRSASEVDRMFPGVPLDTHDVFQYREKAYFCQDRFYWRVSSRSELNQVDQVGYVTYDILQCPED
Procedure, shortened: as §1

MMP-12h = MMP-12h (Homo sapiens (Human), UniProt P39900); assay: Inhibition constant (Ki) on MMP-12h; conditions: human MMP-12
Sequence of MMP-12h (P39900 106-470): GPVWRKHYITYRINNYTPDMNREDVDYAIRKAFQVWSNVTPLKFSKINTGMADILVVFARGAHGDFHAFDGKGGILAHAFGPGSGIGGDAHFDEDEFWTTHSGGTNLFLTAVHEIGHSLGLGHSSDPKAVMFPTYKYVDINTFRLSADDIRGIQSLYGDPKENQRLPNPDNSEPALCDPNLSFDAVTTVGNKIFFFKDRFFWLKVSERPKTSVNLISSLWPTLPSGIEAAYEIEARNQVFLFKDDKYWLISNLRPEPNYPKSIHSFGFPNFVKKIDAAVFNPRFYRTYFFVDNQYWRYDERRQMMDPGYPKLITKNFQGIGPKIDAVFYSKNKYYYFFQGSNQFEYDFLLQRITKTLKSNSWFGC

MMP-14h = MMP-14h (Homo sapiens (Human), UniProt P50281); assay: Inhibition constant (Ki) on MMP-14h; conditions: human MMP-14
Procedure, shortened: as §1

MMP-13h = MMP-13h (Homo sapiens (Human), UniProt P45452); assay: Inhibition constant (Ki) on MMP-13h; conditions: human MMP-13
Procedure, shortened: as §1

Sequence of MMP-3h (P08254 100-477): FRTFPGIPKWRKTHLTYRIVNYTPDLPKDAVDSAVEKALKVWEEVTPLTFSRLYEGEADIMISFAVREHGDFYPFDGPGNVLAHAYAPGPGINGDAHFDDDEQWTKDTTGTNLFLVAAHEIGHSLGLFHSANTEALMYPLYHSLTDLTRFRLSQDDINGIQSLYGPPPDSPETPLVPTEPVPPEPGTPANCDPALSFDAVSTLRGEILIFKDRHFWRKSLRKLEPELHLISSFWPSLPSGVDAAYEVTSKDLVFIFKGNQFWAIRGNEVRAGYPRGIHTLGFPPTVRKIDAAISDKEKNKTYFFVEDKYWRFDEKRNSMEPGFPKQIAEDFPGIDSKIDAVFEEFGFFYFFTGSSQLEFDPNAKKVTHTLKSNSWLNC

NC(=O)[C@H](CCC(=O)O)NC(=O)[C@H](CCC(=O)O)NC(=O)CCc1ccc(-c2ccsc2)cc1 [Compound 38, (S)-5-amino-4-((S)-4-carboxy-2-(3-(4-(thiophen-3-yl)phenyl)propanamido)butanamido)-5-oxopentanoic acid]
Ki (MMP-3h): 0.337 µM | Ki (MMP-8h): 0.052 µM | Ki (MMP-10h): 0.446 µM | Ki (MMP-2h): 0.225 µM | Ki (MMP-9h): 0.141 µM | Ki (MMP-12h): 0.012 µM | Ki (MMP-14h): 0.41 µM | Ki (MMP-13h): 0.532 µM

NC(=O)[C@H](CC(=O)O)NC(=O)[C@H](CCC(=O)O)NC(=O)CCc1ccc(-c2cccs2)cc1 [Compound 83, (S)-5-((S)-1-amino-3-carboxy-1-oxopropan-2-ylamino)-5-oxo-4-(3-(4-(thiophen-2-yl)phenyl)propanamido)pentanoic acid]
Ki (MMP-3h; read-out: Ki MMP-3h): > 10 µM | Ki (MMP-8h; read-out: Ki MMP-8h): 0.049 µM | Ki (MMP-10h; read-out: Ki MMP-10h): 0.435 µM | Ki (MMP-2h; read-out: Ki MMP-2h): 0.334 µM | Ki (MMP-9h; read-out: Ki MMP-9h): > 1 µM | Ki (MMP-12h; read-out: Ki MMP-12h): 0.0142 µM | Ki (MMP-14h; read-out: Ki MMP-14h): > 1 µM | Ki (MMP-13h; read-out: Ki MMP-13h): > 1 µM

NC(=O)[C@H](CCC(=O)O)NC(=O)[C@H](CCC(=O)O)NC(=O)CCc1ccc(-c2ccc(-c3ccccc3)s2)cc1 [Compound 92, (S)-5-amino-4-((S)-4-carboxy-2-(3-(4-(5-phenylthiophen-2-yl)phenyl)propanamido)butanamido)-5-oxopentanoic acid]
Ki (MMP-3h; read-out: Ki MMP-3h): 0.108 µM | Ki (MMP-8h; read-out: Ki MMP-8h): 0.381 µM | Ki (MMP-10h; read-out: Ki MMP-10h): 0.156 µM | Ki (MMP-2h; read-out: Ki MMP-2h): 0.279 µM | Ki (MMP-9h; read-out: Ki MMP-9h): 0.874 µM | Ki (MMP-12h; read-out: Ki MMP-12h): 0.00258 µM | Ki (MMP-14h; read-out: Ki MMP-14h): > 1 µM | Ki (MMP-13h; read-out: Ki MMP-13h): 0.2 µM

COc1cccc(-c2ccc(CCC(=O)N[C@@H](CCC(=O)O)C(=O)N[C@@H](CCC(=O)O)C(N)=O)cc2)c1 [Compound 59, (S)-5-amino-4-((S)-4-carboxy-2-(3-(3′-methoxybiphenyl-4-yl)propanamido)butanamido)-5-oxopentanoic acid]
Ki (MMP-3h; read-out: Ki MMP-3h): > 10 µM | Ki (MMP-8h; read-out: Ki MMP-8h): > 1 µM | Ki (MMP-10h; read-out: Ki MMP-10h): > 1 µM | Ki (MMP-2h; read-out: Ki MMP-2h): > 5 µM | Ki (MMP-9h; read-out: Ki MMP-9h): > 5 µM | Ki (MMP-12h; read-out: Ki MMP-12h): 0.035 µM | Ki (MMP-14h; read-out: Ki MMP-14h): > 10 µM | Ki (MMP-13h; read-out: Ki MMP-13h): > 5 µM

NC(=O)[C@H](Cc1ccc(O)cc1)NC(=O)[C@H](CCC(=O)O)NC(=O)CCc1ccc(-c2cccs2)cc1 [Compound 84, (S)-5-((S)-1-amino-3-(4-hydroxyphenyl)-1-oxopropan-2-ylamino)-5-oxo-4-(3-(4-(thiophen-2-yl)phenyl)propanamido)pentanoic acid]
Ki (MMP-3h; read-out: Ki MMP-3h): > 5 µM | Ki (MMP-8h; read-out: Ki MMP-8h): 0.041 µM | Ki (MMP-10h; read-out: Ki MMP-10h): 0.514 µM | Ki (MMP-2h; read-out: Ki MMP-2h): 0.14 µM | Ki (MMP-9h; read-out: Ki MMP-9h): 0.859 µM | Ki (MMP-12h; read-out: Ki MMP-12h): 0.0209 µM | Ki (MMP-14h; read-out: Ki MMP-14h): > 1 µM | Ki (MMP-13h; read-out: Ki MMP-13h): 0.584 µM

NC(=O)[C@H](Cc1c[nH]cn1)NC(=O)[C@H](CCC(=O)O)NC(=O)CCc1ccc(-c2ccc(-c3ccccc3)cc2)cc1 [Compound 67, (S)-5-((S)-1-amino-3-(1H-imidazol-4-yl)-1-oxopropan-2-ylamino)-4-(3-(4′-phenylbiphenyl-4-yl)propanamido)-5-oxopentanoic acid]
Ki (MMP-3h; read-out: Ki MMP-3h): 0.337 µM | Ki (MMP-8h; read-out: Ki MMP-8h): 0.526 µM | Ki (MMP-10h; read-out: Ki MMP-10h): 0.168 µM | Ki (MMP-2h; read-out: Ki MMP-2h): 0.068 µM | Ki (MMP-9h; read-out: Ki MMP-9h): > 1 µM | Ki (MMP-12h; read-out: Ki MMP-12h): 0.0102 µM | Ki (MMP-14h; read-out: Ki MMP-14h): > 1 µM | Ki (MMP-13h; read-out: Ki MMP-13h): 0.036 µM

NC(=O)[C@H](CCC(=O)O)NC(=O)[C@H](CCC(=O)O)NC(=O)CCc1ccc(COc2ccccc2)cc1 [Compound 29, (S)-5-amino-4-((S)-4-carboxy-2-(3-(4-(phenoxymethyl)phenyl)propanamido)butanamido)-5-oxopentanoic acid]
Ki (MMP-3h; read-out: Ki MMP-3h): > 10 µM | Ki (MMP-8h; read-out: Ki MMP-8h): > 1 µM | Ki (MMP-10h; read-out: Ki MMP-10h): > 1 µM | Ki (MMP-2h; read-out: Ki MMP-2h): > 1 µM | Ki (MMP-9h; read-out: Ki MMP-9h): > 1 µM | Ki (MMP-12h; read-out: Ki MMP-12h): 0.469 µM | Ki (MMP-14h; read-out: Ki MMP-14h): > 5 µM | Ki (MMP-13h; read-out: Ki MMP-13h): 0.117 µM

CC(C)C[C@H](NC(=O)[C@H](CCC(=O)O)NC(=O)CCc1ccc(-c2ccccc2)cc1)C(N)=O [Compound 50, (S)-5-((S)-1-amino-4-methyl-1-oxopentan-2-ylamino)-4-(3-(biphenyl-4-yl)propanamido)-5-oxopentanoic acid]
Ki (MMP-3h; read-out: Ki MMP-3h): > 50 µM | Ki (MMP-8h; read-out: Ki MMP-8h): 0.364 µM | Ki (MMP-10h; read-out: Ki MMP-10h): > 5 µM | Ki (MMP-2h; read-out: Ki MMP-2h): > 1 µM | Ki (MMP-9h; read-out: Ki MMP-9h): > 5 µM | Ki (MMP-12h; read-out: Ki MMP-12h): 0.076 µM | Ki (MMP-14h; read-out: Ki MMP-14h): > 5 µM | Ki (MMP-13h; read-out: Ki MMP-13h): > 1 µM

Cc1nc(-c2ccc(CCC(=O)N[C@@H](CCC(=O)O)C(=O)N[C@@H](CCC(=O)O)C(N)=O)cc2)no1 [Compound 34, (S)-5-amino-4-((S)-4-carboxy-2-(3-(4-(5-methyl-1,2,4-oxadiazol-3-yl)phenyl)propanamido)butanamido)-5-oxopentanoic acid]
Ki (MMP-3h; read-out: Ki MMP-3h): > 1 µM | Ki (MMP-8h; read-out: Ki MMP-8h): > 1 µM | Ki (MMP-10h; read-out: Ki MMP-10h): > 1 µM | Ki (MMP-2h; read-out: Ki MMP-2h): > 5 µM | Ki (MMP-9h; read-out: Ki MMP-9h): > 5 µM | Ki (MMP-12h; read-out: Ki MMP-12h): 0.887 µM | Ki (MMP-14h; read-out: Ki MMP-14h): > 1 µM | Ki (MMP-13h; read-out: Ki MMP-13h): > 1 µM
